molecular target: T1, GST-FAK (N-terminal GST fusion with truncated human FAK (376-1052 (end) amino acids)) (Homo sapiens, UniProt Q05397); assay: Biochemical enzyme assay for FAK activity (Caliper LC3000 mobility shift); details: Table 3; 100 uM ATP; read-out: FAK IC50
T1 construct: truncated human FAK (376-1052 (end) amino acids)
Protocol: 1. Biochemical Enzyme Assays for FAK Activity
The FAK assays described here are performed on two Caliper Life Sciences systems, the LC3000 and the EZ Reader II. These provide data on enzyme activity via measurement of the relative amounts of phosphorylated or unphosphorylated fluorescently labelled substrate peptide at the end of an enzymatic reaction. These different states of peptide are resolved by applying a potential difference across the sample. The presence of the charged phosphate group on the product (as opposed to the substrate) causes different peptide mobility between the two peptides. This is visualized by excitation of the fluorescent label on the substrate and product peptides and represented as peaks within the analysis software.
In order to measure inhibitor activity of FAK, inhibitors in the Caliper Life Sciences LC3000, a TTP Mosquito liquid handling instrument is used to place 0.25 ul of the appropriate concentration of inhibitor in 100% DMSO (for a dose response curve calculation) into each well of a 384-well plate. To this reaction components are added to a final volume of 25 ul: • 0.067 ng/ul GST-FAK (N-terminal GST fusion with truncated human FAK (376-1052 (end) amino acids)) • 100 uM ATP • 1 mM DTT • 1 mM MgCl2 • 1 uM substrate peptide (sequence FITC-KGWMEDYDYVHLQGKK-(CONH2)SEQ ID NO: 1)) • 1 mM FERM peptide (sequence NH2-GATQSFIIR-COOH (SEQ ID NO: 2)) • 100 mM HEPES pH 7.5 • 0.015% Brij-35
The reaction is incubated for 90 min at 25 C, and then stopped by the addition of 70 ul of Stop buffer (100 mM HEPES pH 7.5, 0.015% Brij-35, 10 mM EDTA).
The plate is read on a Caliper LC 3000 in an Off-Chip mobility shift assay format, using the following parameters for a 12-sipper chip: screening pressure—1.9 psi, upstream voltage—3000, downstream voltage—700. These conditions cause unphosphorylated substrate and phosphorylated product peptide to resolve as separate peaks allowing direct measurement of percentage of conversion of substrate to product. The percent conversion can be plotted against concentration of inhibitor to produce a sigmoid dose response curve, from which an IC50 can be calculated using XLFit for Microsoft Excel.

T1 sequence (Q05397 376-1052): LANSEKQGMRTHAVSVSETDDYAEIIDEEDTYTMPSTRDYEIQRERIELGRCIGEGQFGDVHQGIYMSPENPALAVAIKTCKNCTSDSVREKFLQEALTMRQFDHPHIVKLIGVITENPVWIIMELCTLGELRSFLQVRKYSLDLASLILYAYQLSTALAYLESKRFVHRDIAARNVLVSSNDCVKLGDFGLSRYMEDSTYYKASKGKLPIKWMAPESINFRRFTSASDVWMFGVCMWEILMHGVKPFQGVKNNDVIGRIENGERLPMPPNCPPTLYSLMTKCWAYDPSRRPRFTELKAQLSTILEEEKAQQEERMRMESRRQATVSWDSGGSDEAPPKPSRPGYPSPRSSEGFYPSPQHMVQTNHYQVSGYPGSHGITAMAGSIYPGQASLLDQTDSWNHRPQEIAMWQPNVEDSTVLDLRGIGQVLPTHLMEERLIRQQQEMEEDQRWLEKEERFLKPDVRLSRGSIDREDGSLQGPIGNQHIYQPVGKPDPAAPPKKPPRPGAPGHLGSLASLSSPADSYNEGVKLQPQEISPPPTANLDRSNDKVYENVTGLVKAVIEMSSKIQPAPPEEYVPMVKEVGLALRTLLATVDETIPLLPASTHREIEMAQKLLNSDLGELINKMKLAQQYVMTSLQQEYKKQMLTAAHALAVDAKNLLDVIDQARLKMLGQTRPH

Question: `Nc1ncccc1-c1nccc(NCc2ncccc2C(F)(F)F)n1` [Compound 100, 2-(2-Aminopyridin-3-yl)-N-{[3-(trifluoromethyl)pyridin-2-yl]methyl}pyrimidin-4-amine] was tested. Which IC50 did it give?
Answer: Its IC50 is 1 to 10 µM.

Question: For `Cc1ccc(CNc2ccnc(-c3cccnc3N)n2)c(F)c1` [Compound 101, 2-(2-Aminopyridin-3-yl)-N-(2-fluoro-4-methylbenzyl)pyrimidin-4-amine], which IC50 is on record?
Answer: The IC50 was 1 to 10 µM.

Question: How did the IC50 turn out when `Nc1ncccc1-c1nccc(NCc2cc(F)ccc2C(F)(F)F)n1` [Compound 102, 2-(2-Aminopyridin-3-yl)-N-[5-fluoro-2-(trifluoromethyl)benzyl]pyrimidin-4-amine] was run?
Answer: The IC50 was 1 to 10 µM.

Question: Which IC50 does the source give for `Nc1ncccc1-c1nccc(NCc2cnccc2C(F)(F)F)n1` [Compound 103, 2-(2-Aminopyridin-3-yl)-N-{[4-(trifluoromethyl)pyridin-3-yl]methyl}pyrimidin-4-amine] here?
Answer: The IC50 was 1 to 10 µM.

Question: Which IC50 does the source give for `Nc1ncccc1-c1cccc(NCc2ccccc2C(F)(F)F)c1` [Compound 104, 3-(3-{[2-(Trifluoromethyl)benzyl]amino}phenyl)pyridin-2-amine] here?
Answer: The IC50 was greater than 10 µM.

Question: How did the IC50 turn out when `Nc1ncccc1-c1cccc(NCc2ccccc2F)c1` [Compound 105, 3-{3-[(2-Fluorobenzyl)amino]phenyl}pyridin-2-amine] was run?
Answer: The IC50 was greater than 10 µM.

Question: For `Nc1ncccc1-c1cc(NCc2ccccc2F)ccn1` [Compound 106, N4-(2-Fluorobenzyl)-2,3′-bipyridine-2′,4-diamine], which IC50 is on record?
Answer: The IC50 was greater than 10 µM.

Question: Which IC50 does the source give for `Nc1ncccc1-c1nccc(NCc2ccc(Cl)cc2C(F)(F)F)n1` [Compound 109, 2-(2-Aminopyridin-3-yl)-N-[4-chloro-2-(trifluoromethyl)benzyl]pyrimidin-4-amine] here?
Answer: The IC50 was 0.1 to 1 µM.

Question: `Nc1ncccc1-c1nccc(NCc2c(F)cccc2C(F)(F)F)n1` [Compound 111, 2-(2-Aminopyridin-3-yl)-N-[2-fluoro-6-(trifluoromethyl)benzyl]pyrimidin-4-amine] was tested. Which IC50 did it give?
Answer: The IC50 was 1 to 10 µM.

Question: How did the IC50 turn out when `Nc1ncccc1-c1cc(NCc2ccccc2C(F)(F)F)ccn1` [Compound 113, N4-[2-(trifluoromethyl)benzyl]-2,3′-bipyridine-2′,4-diamine] was run?
Answer: Its IC50 is 1 to 10 µM.

Question: With `Nc1ncccc1-c1nccc(NC2CCOc3ccccc32)n1` (stereo not shown) [Compound 116, 2-(2-Aminopyridin-3-yl)-N-(3,4-dihydro-2H-chromen-4-yl)pyrimidin-4-amine] as the molecule, how does the IC50 read?
Answer: The IC50 was greater than 10 µM.

Question: How did the IC50 turn out when `Nc1ncccc1-c1nccc(NCc2cccc3nsnc23)n1` [Compound 117, 2-(2-Aminopyridin-3-yl)-N-(2,1,3-benzothiadiazol-4-ylmethyl)pyrimidin-4-amine] was run?
Answer: Its IC50 is 0.1 to 1 µM.

Question: `Nc1ncccc1-c1nccc(N2Cc3ccccc3C2=O)n1` [Compound 120, 2-[2-(2-Aminopyridin-3-yl)pyrimidin-4-yl]isoindolin-1-one] was tested. Which IC50 did it give?
Answer: The IC50 was greater than 10 µM.

Question: Which IC50 does the source give for `Nc1ncccc1-c1nccc(NCc2cccnc2)n1` [Compound 121, 2-(2-Aminopyridin-3-yl)-N-(pyridin-3-ylmethyl)pyrimidin-4-amine] here?
Answer: The IC50 was greater than 10 µM.

Question: Which IC50 does the source give for `Nc1ncccc1-c1nccc(NCc2cccc3c2OCO3)n1` [Compound 122, 2-(2-Aminopyridin-3-yl)-N-(1,3-benzodioxol-4-ylmethyl)pyrimidin-4-amine] here?
Answer: Its IC50 is 0.1 to 1 µM.

Question: Which IC50 does the source give for `Nc1ncccc1-c1nccc(NCc2ccncc2)n1` [Compound 128, 2-(2-Aminopyridin-3-yl)-N-(pyridin-4-ylmethyl)pyrimidin-4-amine] here?
Answer: Its IC50 is greater than 10 µM.

Question: With `FC(F)(F)c1cncc(-c2nccc(NCc3cccc4nsnc34)n2)c1` [Compound 133, N-(2,1,3-Benzothiadiazol-4-ylmethyl)-2-[5-(trifluoromethyl)pyridin-3-yl]pyrimidin-4-amine] as the molecule, how does the IC50 read?
Answer: The IC50 was less than 0.1 µM.

Question: With `Nc1ncccc1-c1nccc(NCc2cccc3ccnn23)n1` [Compound 135, 2-(2-Aminopyridin-3-yl)-N-(pyrazolo[1,5-a]pyridin-7-ylmethyl)pyrimidin-4-amine] as the molecule, how does the IC50 read?
Answer: The IC50 was greater than 10 µM.

Question: Which IC50 does the source give for `Nc1ncc(C(F)(F)F)cc1-c1nccc(NCc2ccccc2C(F)(F)F)n1` [Compound 136, 2-[2-Amino-5-(trifluoromethyl)pyridin-3-yl]-N-[2-(trifluoromethyl)benzyl]pyrimidin-4-amine] here?
Answer: Its IC50 is less than 0.1 µM.

Reference: patent publication US9199962B2, “Substituted azaheterocycles for the treatment of cancer” (Merck Patent GmbH, priority 2011, dated 2015)
